Laboratory results reported in patent US12497396B2, “Nitrogen-containing heterocyclic derivatives, method therefor and application therefor as inhibitors of KRAS G12C for the treatment of cancers” (SHANGHAI HANSOH BIOMEDICAL CO., LTD., priority 2019, dated 2025).
Values belong to the molecule of their own block, whether it stands above or below them.

Key:
[1] = system: NCI-H358 cells (KRAS G12C mutant cell line); experiment: Inhibition of NCI-H358 cell proliferation (CellTiter-Glo, 72 h); format: cell-based, human; details: Homo sapiens
Text: (§1) As a preferred embodiment of the present disclosure, the detection method of NCI-H358 cell proliferation inhibitory activity and Mia PaCa-2 cell proliferation inhibitory activity is as follows: through cell culture, adding different concentrations of compound solutions to the cultured cells, continuing the culture for a period of time and measuring the cell proliferation; • further, the method of cell culture is: adjusting the cells to a suitable cell concentration with complete medium and spreading the cell suspension in well plates for culture; preferably, the culture conditions are 37° C., 5% CO2 incubator overnight; preferably, the cell suspension is spread in 96-well plates, 48-well plates, 24-well plates, 12-well plates or 6-well plates, more preferably 96-well plates; preferably, the suitable cell concentration is 1500-4000 cells/well, with 90 μL of cell suspension added to each well; • further, the compound solution is prepared with DMSO and may be further diluted with medium; preferably, the compound solution has a concentration gradient starting from 100 μM at 4-fold dilution, more preferably starting from 30 μM at 4-fold dilution, most preferably starting from 10 μM at 4-fold dilution; • further, the volume of the compound solution or solvent added to each well is 1-10 μL, preferably 10 μL; • further, after adding the compound solution, the conditions for continuing the culture are 37° C., 5% CO2 incubator; preferably, the culture time is 24-72 h, more preferably 72 h; • further, the method for measuring cell proliferation is MTT, CCK8, CellTiter-Glo; preferably the method is CellTiter-Glo; • further, the cell proliferation is read using a microplate reader, more preferably a BioTek Synergy H1 microplate reader.
(§2) When NCI-H358 or Mia PaCa-2 cells were cultured to the appropriate fusion level, the NCI-H358 or Mia PaCa-2 cells were collected, and the cells were adjusted to the appropriate cell concentration using a complete medium, and the cell suspension was spread in a 96-well plate, 90 μL per well, and placed in a 37° C., 5% CO2 incubator overnight; and compound solutions of different concentrations were prepared using DMSO and culture medium; and a solvent control was set, the compound solution was added to a 96-well plate, 10 μL per well, at 37° C. in a 5% CO2 incubator for 72 hours; CellTiter-Glo solution was added thereto and the mixture was mixed well by shaking, incubated for 10 min in the dark, and read by BioTek Synergy H1 microplate reader.
(§3) The luminescence signal values were used to calculate the inhibition rate, the concentration and the inhibition rate were fitted to a nonlinear regression curve using Graphpad Prism software, then the IC50 value was obtained.

[2] = system: Mia PaCa-2 cells (KRAS G12C mutant cell line); experiment: Inhibition of Mia PaCa-2 cell proliferation (CellTiter-Glo, 72 h); format: cell-based, human; details: Homo sapiens
Text: as §1, §2, §3

human KRAS G12C protein = target: T1, human KRAS G12C protein (Homo sapiens, UniProt P01116, G12C); experiment: Thermal shift: melting temperature of KRAS G12C protein; format: binding; details: for Tm (° C.): KRAS G12C protein 5.37 μM with compound 10 μM, 1 hour incubation
T1 construct: purchased Beijing SinoBiological Co., Ltd. 12259-H07E2
Protocol: A solution containing […] (pH 7.5), 1 mM DTT, 5×SYPRO Orange and 150 mM NaCl was prepared as the experimental buffer, and a final concentration of 5.37 μM human KRAS G12C protein was added thereto. […] After incubating at room temperature in the dark for 1 hour, the PCR tube was put into the PCR instrument, QuantStudio Software v1.3 was opened, and the melting temperature of KRAS G12C protein in different treatment groups was detected by melt curve function (heating from 25° C. to 95° C., 0.03° C./s). The experimental data file of PCR instrument was imported into thermal shift software, and the melting temperature (Tm) of each treatment group was obtained, and the change value of melting temperature (Δ Tm) was obtained by subtracting the Tm of DMSO solvent control group.

in vitro = in vitro ADME; details: 0.5 μM
Protocol: Animal or human whole blood was collected, then the blood was put into a test tube containing anticoagulant, centrifuged at 3500 rpm for 10 min, and the upper layer of pale yellow plasma was collected. • 2), 10 μM of tested compound (m/M/V=C)
The compound was weighed, the stock solution was prepared with DMSO and the working solution was prepared with 100 mM phosphate buffer. • 3), 10 μM of positive control (1) Propantheline (Propantheline Mr=449.4 Da)
• 1) 285 μL of plasma and 15 μL of 10 μM compound (tested compound) were added in turn in a 96-well plate, and incubated at 37° C. • 2) 40 μL was taken out at 0, 15, 30, 60, 90, 120 min, respectively, and 160 μL of acetonitrile termination solution containing internal standard was added. • 3) After centrifugation (3500 rpm, 10 min), 50 μL of supernatant was taken out, and then diluted with 50 μL DDH2O and injected to LC-MS/MS.
• Instrument: Shimadzu LC-20 AD • Chromatographic column: phenomenex Gemiu® C18 (50*4.6 mm, 5 μM particle size); • mobile phase: A: acetonitrile, B: 0.1% formic acid solution […], 2.0-2.1 min: 90% A→5% A; flow rate: 0.8 mL/min; running time: 5.0 min; injection volume: 5 μL.
• Instrument: API4000 Liquid Chromatography-Mass Spectrometry, AB, USA; • the ion source was electrospray ionization source (ESI); • the temperature of dry gas (N2) was 500° C.; • electrospray voltage was 5500V; • the detection method was positive ion detection; • the scanning mode was selective response monitoring (MRM). • the scanning time was 0.1 s.

[3] = compound 10 μM, Tm minus Tm of DMSO solvent control

IC50 [2]: 5.3 nM
SMILES: C=CC(=O)N1C[C@H](C)N(c2nc(=O)n(-c3c(SC)ccnc3C(C)C)c3nc(-c4c(N)c(F)cc(Cl)c4F)c(Cl)cc23)C[C@H]1C [Embodiment 196, 4-((2S, 5R)-4-acryloyl-2,5-dimethylpiperazin-1-yl)-7-(2-amino-5-chloro-3,6-difluorophenyl)-6-chloro-1-(2-isopropyl-4-(methylthio)pyridin-3-yl) pyrido [2,3-d] pyrimidin-2 (1H)-one]

IC50 [2]: 6 nM
SMILES: C=CC(=O)N1CCN(c2nc(=O)n(-c3c(SC)ccnc3C(C)C)c3nc(-c4c(F)ccc(F)c4N)c(Cl)cc23)[C@@H](C)C1 [Embodiment 198, 4-((S)-4-acryloyl-2-methylpiperazin-1-yl)-7-(2-amino-3,6-difluorophenyl)-6-chloro-1-(2-isopropyl-4-(methylthio)pyridin-3-yl)pyrido[2,3-d]pyrimidin-2(1H)-one]

IC50 [2]: 4.9 nM
SMILES: C=CC(=O)N1C[C@H](C)N(c2nc(=O)n(-c3c(SC)ccnc3C(C)C)c3nc(-c4c(N)c(C)cc(F)c4F)c(Cl)cc23)C[C@H]1C [Embodiment 201, 4-((2S, 5R)-4-acryloyl-2,5-dimethylpiperazin-1-yl)-7-(2-amino-5,6-difluoro-3-methylphenyl)-6-chloro-1-(2-isopropyl-4-(methylthio)pyridin-3-yl) pyrido [2,3-d] pyrimidin-2 (1H)-one]

IC50 [2]: 14 nM
SMILES: C=CC(=O)N1CCN(c2nc(=O)n(-c3c(SC)ccnc3C(C)C)c3nc(-c4c(C)cccc4F)c(Cl)cc23)[C@@H](C)C1 [Embodiment 206, 4-((S)-4-acryloyl-2-methylpiperazin-1-yl)-6-chloro-7-(2-fluoro-6-methylphenyl)-1-(2-isopropyl-4-(methylthio)pyridin-3-yl) pyrido [2,3-d] pyrimidin-2 (1H)-one]

IC50 [2]: 59 nM
SMILES: C=CC(=O)N1CCN(c2nc(=O)n(-c3c(SC)ccnc3C(C)C)c3nc(-c4c(F)cccc4Cl)c(Cl)cc23)[C@@H](C)C1 [Embodiment 208, 4-((S)-4-acryloyl-2-methylpiperazin-1-yl)-6-chloro-7-(2-chloro-6-fluorophenyl)-1-(2-isopropyl-4-(methylthio)pyridin-3-yl) pyrido [2,3-d] pyrimidin-2 (1H)-one]

Second part, the molecule before the results:

SMILES: C=CC(=O)N1CCN(c2nc(=O)n(-c3c(SC)ccnc3C(C)C)c3nc(-c4c(O)cccc4F)c(F)cc23)[C@@H](C)C1 (single isomer, unassigned) [Embodiment 60-1]
IC50 [1]: 28 nM
IC50 [2]: 55 nM

SMILES: C=CC(=O)N1CCN(c2nc(=O)n(-c3c(C)ccnc3C(C)C)c3nc(-c4c(F)cccc4SC)c(F)cc23)[C@@H](C)C1 (single isomer, unassigned) [Embodiment 75-1]
IC50 [1]: 25 nM
IC50 [2]: 36 nM

SMILES: C=CC(=O)N1CCN(c2nc(=O)n(-c3c(C)ccnc3C(C)C)c3nc(-c4c(F)cccc4C(=O)N(C)C)c(F)cc23)[C@@H](C)C1 [Embodiment 73]
Tm (° C.) (human KRAS G12C protein): 55.5 °C
ΔTm (° C.) (human KRAS G12C protein; [3]): 6.9 °C

SMILES: C=CC(=O)N1[C@H](C)CN(c2nc(=O)n(-c3c(SC)ccnc3C(C)C)c3nc(-c4c(O)cccc4F)c(F)cc23)C[C@@H]1C [Embodiment 115, 4-((3S, 5R)-4-acryloyl-3,5-dimethylpiperazin-1-yl)-6-fluoro-7-(2-fluoro-6-hydroxyphenyl)-1-(2-isopropyl-4-(methylthio)pyridin-3-yl) pyrido [2,3-d] pyrimidin-2 (1H)-one]
Tm (° C.) (human KRAS G12C protein): 55.2 °C
ΔTm at 10 µM (human KRAS G12C protein; [3]): 6.6 °C

SMILES: C=CC(=O)N1CCN(c2nc(=O)n(-c3c(S(C)(=O)=O)ccnc3C(C)C)c3nc(-c4c(O)cccc4F)c(F)cc23)[C@@H](C)C1 [Embodiment 133, 4-((S)-4-acryloyl-2-methylpiperazin-1-yl)-6-fluoro-7-(2-fluoro-6-hydroxyphenyl)-1-(2-isopropyl-4-(methylsulfonyl)pyridin-3-yl) pyrido [2,3-d] pyrimidin-2 (1H)-one]
IC50 [1]: 25 nM
IC50 [2]: 46 nM

SMILES: C=CC(=O)N1CCN(c2nc(=O)n(-c3c(C)ccnc3C(C)C)c3nc(-c4cccnc4SC)c(F)cc23)[C@@H](C)C1 [Embodiment 136, (S)-4-(4-acryloyl-2-methylpiperazin-1-yl)-6-fluoro-1-(2-isopropyl-4-methylpyridin-3-yl)-7-(2-(methylthio)pyridin-3-yl) pyrido [2,3-d] pyrimidin-2 (1H)-one]
Tm (° C.) (human KRAS G12C protein): 57.3 °C
ΔTm at 10 µM (human KRAS G12C protein; [3]): 8.7 °C

SMILES: C=CC(=O)N1C[C@H](C)N(c2nc(=O)n(-c3c(SC)ccnc3C(C)C)c3nc(-c4c(N)c(Cl)cc(Cl)c4F)c(Cl)cc23)C[C@H]1C [Embodiment 193, 4-((2S, 5R)-4-acryloyl-2,5-dimethylpiperazin-1-yl)-7-(2-amino-3,5-dichloro-6-fluorophenyl)-6-chloro-1-(2-isopropyl-4-(methylthio)pyridin-3-yl) pyrido [2,3-d] pyrimidin-2 (1H)-one]
IC50 [2]: 18 nM

SMILES: C=CC(=O)N1CCN(c2nc(=O)n(-c3c(SC)ccnc3C(C)C)c3nc(-c4c(N)c(F)cc(Cl)c4F)c(Cl)cc23)[C@@H](C)C1 [Embodiment 194, 4-((S)-4-acryloyl-2-methylpiperazin-1-yl)-7-(2-amino-5-chloro-3,6-difluorophenyl)-6-chloro-1-(2-isopropyl-4-(methylthio)pyridin-3-yl) pyrido [2,3-d] pyrimidin-2 (1H)-one]
IC50 [2]: 7 nM

SMILES: C=CC(=O)N1CCN(c2nc(=O)n(-c3c(SC)ccnc3C(C)C)c3nc(-c4c(N)c(C)cc(F)c4F)c(Cl)cc23)[C@@H](C)C1 [Embodiment 195, 4-((S)-4-acryloyl-2-methylpiperazin-1-yl)-7-(2-amino-5,6-difluoro-3-methylphenyl)-6-chloro-1-(2-isopropyl-4-(methylthio)pyridin-3-yl) pyrido [2,3-d] pyrimidin-2 (1H)-one]
IC50 [2]: 5.2 nM

SMILES: CC(C)[N+](C)(CCOC(=O)C1c2ccccc2Oc2ccccc21)C(C)C [Propantheline, reference compound]
Residual rate (%) 0 min (in vitro; human): 100.00%
Residual rate (%) 15 min (in vitro; human): 79.98%
Residual rate (%) 30 min (in vitro; human): 50.52%
Residual rate (%) 60 min (in vitro; human): 14.65%
Residual rate (%) 120 min (in vitro; human): 0.72%
Residual rate (%) 0 min (in vitro; mouse): 100.00%
Residual rate (%) 15 min (in vitro; mouse): 79.79%
Residual rate (%) 30 min (in vitro; mouse): 48.66%
Residual rate (%) 60 min (in vitro; mouse): 23.39%
Residual rate (%) 120 min (in vitro; mouse): 6.66%
